Converted amounts (≈) assume the structure as drawn.
Experiments:
Assay in all cases: ≥ marks a high value that may be exact or a test limit, other limits are often not marked, values filed in µg/mL are converted to µM
[1] = test system: Candida albicans ATCC 2002
[2] = test system: Pseudomonas aeruginosa CMCCB 10104
[3] = test system: Staphylococcus aureus ATCC 25923
[4] = test system: Escherichia coli ATCC 25922

| MIC [1] [µM] | MIC [2] [µM] | MIC [3] [µM] | MIC [4] [µM] | SMILES |
| --- | --- | --- | --- | --- |
| 14.3 (≈ 30.5 µg/mL) | 7.2 (≈ 15.3 µg/mL) | 7.2 (≈ 15.3 µg/mL) | 14.3 (≈ 30.5 µg/mL) | CC[C@H](C)[C@H](NC(=O)CNC(=O)[C@H](CCCCN)NC(=O)CNC(=O)[C@H](C)NC(=O)[C@H](Cc1ccccc1)NC(=O)[C@H](CCCCN)NC(=O)[C@H](CO)NC(=O)[C@H](Cc1ccccc1)NC(=O)[C@H](CC(C)C)NC(=O)CN)C(=O)N[C@H](C(=O)N[C@@H](CC(N)=O)C(=O)N[C@@H](Cc1ccccc1)C(=O)N[C@@H](CC(C)C)C(=O)N[C@H](C(=O)N[C@@H](CCC(=O)O)C(=O)NCC(=O)N[C@H](C(=O)N[C@@H](CCC(=O)O)C(=O)O)C(C)C)[C@@H](C)CC)C(C)C [GLFSKFAGKGIVNFLIEGVE] |
| 9.59 (≈ 24.8 µg/mL) | 4.79 (≈ 12.4 µg/mL) | 4.79 (≈ 12.4 µg/mL) | 2.4 (≈ 6.2 µg/mL) | CC[C@H](C)[C@H](NC(=O)[C@@H](N)C(C)C)C(=O)N[C@H](C(=O)N[C@@H](Cc1ccccc1)C(=O)N[C@H](C(=O)N[C@@H](C)C(=O)N[C@@H](CO)C(=O)N[C@H](C(=O)N[C@@H](C)C(=O)N[C@@H](C)C(=O)N[C@@H](CCC(=O)O)C(=O)N[C@@H](CCSC)C(=O)N[C@@H](CCSC)C(=O)N[C@@H](CCC(N)=O)C(=O)N[C@@H](Cc1cnc[nH]1)C(=O)N[C@H](C(=O)N[C@@H](Cc1ccc(O)cc1)C(=O)N[C@H]1CSSC[C@@H](C(=O)O)NC(=O)[C@H](CCCCN)NC(=O)[C@H](CCCCN)NC(=O)[C@H](CO)NC(=O)[C@H](C)NC(=O)[C@H](C)NC1=O)C(C)C)C(C)C)C(C)C)C(C)C [VIVFVASVAAEMMQHVYCAASKKC] |
| 0.749 (≈ 3.3 µg/mL) | 1.5 (≈ 6.6 µg/mL) | 1.5 (≈ 6.6 µg/mL) | 0.749 (≈ 3.3 µg/mL) | CC[C@H](C)[C@H](NC(=O)CNC(=O)[C@@H](NC(=O)[C@H](CCCN=C(N)N)NC(=O)[C@@H](NC(=O)[C@@H](NC(=O)[C@H](CC(=O)O)NC(=O)[C@H](CCSC)NC(=O)CNC(=O)[C@@H](NC(=O)[C@H](CCC(=O)O)NC(=O)[C@H](CCCCN)NC(=O)CNC(=O)[C@@H](NC(=O)[C@H](CC(N)=O)NC(=O)[C@H](CCCCN)NC(=O)[C@H](C)NC(=O)CNC(=O)[C@H](CCCCN)NC(=O)[C@@H](NC(=O)[C@H](Cc1ccccc1)NC(=O)[C@H](CC(C)C)NC(=O)[C@H](CC(N)=O)NC(=O)[C@H](CCCCN)NC(=O)[C@@H](NC(=O)[C@H](C)NC(=O)[C@H](CCCCN)NC(=O)CNC(=O)[C@H](CO)NC(=O)[C@@H](NC(=O)[C@@H](N)CCCCN)[C@@H](C)CC)[C@@H](C)CC)[C@@H](C)CC)C(C)C)C(C)C)C(C)C)C(C)C)[C@@H](C)O)C(=O)N[C@@H](CC(=O)O)C(=O)N[C@H](C(=O)N[C@H](C(=O)NCC(=O)N[C@H]1CSSC[C@@H](C(=O)O)NC(=O)[C@H](CCC(=O)O)NC(=O)CNC(=O)[C@H](CCCCN)NC(=O)[C@H]([C@@H](C)CC)NC(=O)[C@H](CCCCN)NC1=O)C(C)C)C(C)C [KISGKAIKNLFIKGAKNVGKEVGMDVVRTGIDVVGCKIKGEC] |
| 1.3 (≈ 3.3 µg/mL) | 5.21 (≈ 13.2 µg/mL) | 2.61 (≈ 6.59 µg/mL) | 2.61 (≈ 6.59 µg/mL) | CC[C@H](C)[C@@H]1NC(=O)[C@H](C)NC(=O)[C@@H](NC(=O)[C@H](Cc2ccccc2)NC(=O)[C@H](C)NC(=O)[C@@H](NC(=O)[C@@H]2CCCN2C(=O)[C@H](CC(C)C)NC(=O)[C@@H](NC(=O)[C@H](CC(N)=O)NC(=O)[C@H](C)NC(=O)[C@H](C)NC(=O)[C@@H](NC(=O)[C@H](CCCN=C(N)N)NC(=O)[C@@H](NC(=O)[C@@H](NC(=O)[C@H](C)NC(=O)[C@@H]2CCCN2C(=O)[C@H](CC(C)C)NC(=O)[C@@H](N)Cc2ccccc2)C(C)C)[C@@H](C)CC)C(C)C)C(C)C)[C@@H](C)O)CSSC[C@@H](C(=O)O)NC(=O)[C@H](CCCCN)NC(=O)[C@H](CCCCN)NC(=O)[C@H](CO)NC1=O [FLPAVIRVAANVLPTAFCAISKKC] |
| 3.32 (≈ 6.69 µg/mL) | 11.2 (≈ 22.6 µg/mL) | 5.6 (≈ 11.3 µg/mL) | 5.6 (≈ 11.3 µg/mL) | CC[C@H](C)[C@H](NC(=O)CN)C(=O)N[C@@H](CC(C)C)C(=O)NCC(=O)N[C@@H](CC(N)=O)C(=O)N[C@H](C(=O)N[C@H](C(=O)NCC(=O)N[C@@H](CCSC)C(=O)NCC(=O)N[C@@H](CCCCN)C(=O)N[C@@H](CCCCN)C(=O)N[C@H](C(=O)N[C@H](C(=O)N[C@H]1CSSC[C@@H](C(=O)O)NC(=O)[C@H](CC(C)C)NC(=O)CNC(=O)[C@H](CO)NC(=O)[C@H](CC(C)C)NC(=O)CNC1=O)C(C)C)C(C)C)C(C)C)[C@@H](C)CC [GILGNIVGMGKKVVCGLSGLC] |
| 2.97 (≈ 9.99 µg/mL) | 5.94 (≈ 20 µg/mL) | 2.97 (≈ 9.99 µg/mL) | 5.94 (≈ 20 µg/mL) | CC(C)C[C@H](NC(=O)CN)C(=O)N[C@@H](CC(C)C)C(=O)N[C@@H](CC(=O)O)C(=O)N[C@H](C(=O)N[C@@H](Cc1ccccc1)C(=O)N[C@@H](CCCCN)C(=O)N[C@@H](CC(N)=O)C(=O)N[C@@H](CC(C)C)C(=O)N[C@@H](C)C(=O)N[C@@H](CC(C)C)C(=O)N[C@@H](CC(N)=O)C(=O)N[C@@H](C)C(=O)N[C@@H](C)C(=O)N[C@@H](CCC(=O)O)C(=O)N[C@@H](CO)C(=O)N[C@@H](C)C(=O)NCC(=O)N[C@H](C(=O)N[C@@H](CO)C(=O)N[C@H](C(=O)N[C@@H](CC(C)C)C(=O)N[C@@H](CC(N)=O)C(=O)N[C@@H](CO)C(=O)N[C@@H](CC(C)C)C(=O)N[C@@H](CO)C(=O)N[C@H]1CSSC[C@@H](C(=O)O)NC(=O)[C@H]([C@@H](C)O)NC(=O)[C@H](CCCCN)NC(=O)[C@H](CO)NC(=O)[C@H](CC(C)C)NC(=O)[C@H](CCCCN)NC1=O)C(C)C)C(C)C)[C@@H](C)O [GLLDTFKNLALNAAESAGVSVLNSLSCKLSKTC] |
| 5.11 (≈ 17.2 µg/mL) | 2.56 (≈ 8.6 µg/mL) | 2.56 (≈ 8.6 µg/mL) | 2.56 (≈ 8.6 µg/mL) | CC[C@H](C)[C@H](NC(=O)[C@@H](NC(=O)[C@H](CC(=O)O)NC(=O)[C@H](CC(C)C)NC(=O)[C@H](CC(C)C)NC(=O)CN)[C@@H](C)O)C(=O)N[C@@H](CCCCN)C(=O)N[C@@H](CC(N)=O)C(=O)N[C@@H](CCSC)C(=O)N[C@@H](C)C(=O)N[C@@H](CC(C)C)C(=O)N[C@@H](CC(N)=O)C(=O)N[C@@H](C)C(=O)N[C@@H](C)C(=O)N[C@@H](CCCCN)C(=O)N[C@@H](CO)C(=O)N[C@@H](C)C(=O)NCC(=O)N[C@H](C(=O)N[C@@H](CO)C(=O)N[C@H](C(=O)N[C@@H](CC(C)C)C(=O)N[C@@H](CC(N)=O)C(=O)N[C@H](C(=O)N[C@@H](CC(C)C)C(=O)N[C@@H](CO)C(=O)N[C@H]1CSSC[C@@H](C(=O)O)NC(=O)[C@H]([C@@H](C)O)NC(=O)[C@H](CCCCN)NC(=O)[C@H](CO)NC(=O)[C@H](CC(C)C)NC(=O)[C@H](CCCCN)NC1=O)[C@@H](C)O)C(C)C)C(C)C [GLLDTIKNMALNAAKSAGVSVLNTLSCKLSKTC] |
| 2.94 (≈ 8.89 µg/mL) | 5.89 (≈ 17.8 µg/mL) | 5.89 (≈ 17.8 µg/mL) | 2.94 (≈ 8.89 µg/mL) | CC[C@H](C)[C@@H]1NC(=O)[C@H](CCCCN)NC(=O)[C@@H](NC(=O)[C@H](CCCCN)NC(=O)[C@H](CC(C)C)NC(=O)[C@H](CC(N)=O)NC(=O)[C@H](CC(=O)O)NC(=O)[C@H](CC(C)C)NC(=O)[C@H](CC(C)C)NC(=O)[C@@H](NC(=O)[C@@H](NC(=O)[C@H](C)NC(=O)[C@@H](NC(=O)[C@H](CC(N)=O)NC(=O)[C@H](CCCCN)NC(=O)[C@H](C)NC(=O)[C@@H](NC(=O)[C@H](CC(N)=O)NC(=O)[C@H](CCCCN)NC(=O)[C@H](C)NC(=O)[C@@H](NC(=O)[C@H](CC(N)=O)NC(=O)[C@H](CCSC)NC(=O)[C@H](Cc2ccccc2)NC(=O)CN)[C@@H](C)O)C(C)C)C(C)C)C(C)C)[C@@H](C)O)CSSC[C@@H](C(=O)O)NC(=O)CNC(=O)CNC(=O)[C@H]([C@@H](C)O)NC1=O [GFMNTAKNVAKNVAVTLLDNLKCKITGGC] |
